System: Puccinia recondita
Assay: Protective activity against Puccinia recondita on wheat (brown rust of wheat)
Format: in vivo
Details: 250 ppm, protective: wheat seedlings sprayed the day before inoculation, visual rating after a further 7 days; untreated plants 90% infected
Procedure: The respective active compound was prepared as a stock solution with 25 mg of active compound which was made up to 10 ml with a mixture of acetone and/or dimethyl sulfoxide (DMSO) and the emulsifier Uniperol® EL (wetting agent having emulsifying and dispersing action based on ethoxylated alkylphenols) in a volume ratio solvent/emulsifier of 99 to 1. The solution was then made up to 100 ml with water. This stock solution was diluted to the active compound concentration stated below using the solvent/emulsifier/water mixture described.
Leaves of potted wheat seedlings of the cultivar “Kanzler” were sprayed to runoff point with an aqueous suspension having the active compound concentration stated below. The next day, the treated plants were inoculated with a spore suspension of brown rust of wheat (Puccinia recondita). The plants were then placed in a chamber with high atmospheric humidity (90 to 95%) at 20 to 22° C. for 24 hours. During this time, the spores germinated and the germ tubes penetrated into the leaf tissue. The next day, the test plants were returned to the greenhouse and cultivated at temperatures between 20 and 22° C. and 65 to 70% relative atmospheric humidity for a further 7 days. The extent of the rust fungal development on the leaves was then determined visually.

In the case of `Cc1cc(-c2c(Cl)nc3ncnn3c2N[C@H](C)C(C)C)ccn1` [Example 59], the infection is reported as “no infection”.
